From a melting point compilation (Tetko et al.; mined from patent text by program, amines drawn as free bases though some values may be those of a salt)

SMILES | melting point
N#Cc1ccc(C(=O)c2ccccc2)s1 | 85 to 89 °C
Cc1c[nH]c2ccc(Nc3ncnc4cc(-c5ccccc5)sc34)cc12 | 221 to 223 °C
Cc1nccc2c1[nH]c1cc(OCc3ccccc3)ccc12 | 212 °C
CC12CCC(C(=NO)C1=NN)C(C)(C)O2 (stereo not drawn) | 138 to 142 °C
CON=Cc1cc(-n2c(=S)cc(C(F)(F)F)n(N)c2=O)c(F)cc1Cl | 172 to 174 °C
CC(C)(C)OC(=O)[C@@H]1CSC(Cc2ccccc2)N1C(=O)CNC(=O)Nc1cccc(CC(=O)O)c1 (stereo partly drawn) | 110 °C
CN(C)CCc1[nH]c2ccccc2c1CC(C#N)(c1ccccc1)c1ccccc1 | 181 to 185 °C
CCCCC(NS(=O)(=O)c1ccc(Cl)cc1)C(=S)Nc1ccc(CC(=O)OCC)cc1 (racemic) | 70 to 73 °C
CCOC(=O)c1cnc(O)nc1Cc1ccccc1 | 57 to 61 °C
CCCCn1nnnc1-c1c(O)ccc(-c2cccc(C(=O)OC)c2)c1O | 93 to 97 °C
O=Cc1c(Br)ccc2cc3c(cc12)OCO3 | 165 to 166 °C
CCCc1cn(CC(=O)OCC)nc1OCc1ccc2ccccc2n1 | 82 to 83 °C
CC(C)(C)OC(=O)c1ccccc1CNC(=O)C1Cc2ccccc2N1S(=O)(=O)c1ccc(-c2cccc(C(F)(F)F)c2)cc1 (stereo not drawn) | 68 °C
COc1ccc(C2(C#N)CCC(=O)CC2)c2nc(C(C)C)oc12 | 118 °C
Cn1c(=O)c(-c2c(Cl)cccc2Cl)cc2cnc(NCc3ccccn3)nc21 | 198 to 201 °C
O=C(CCCN1CCC(NC(=O)c2ccccc2)CC1)c1ccccc1 | 143 to 144 °C
Cc1c(NC(=O)CCCCc2ccc(F)cc2)ccc2cc(CN3CCCC3)cnc12 | 137 to 138 °C
Cc1nc(N)nc(N)c1-c1ccc([N+](=O)[O-])c(Cl)c1Cl | 265 °C
Cc1cc(Cl)cc(C(=O)NC2(C)CS(=O)(=O)C2)c1NC(=O)c1cc(C(F)(F)F)nn1-c1ncccc1Cl | 168 to 171 °C
C=C(C)C(=O)OCCCCCCOc1ccc(C(=O)Oc2ccc(/C=C/C(=O)OC)cc2OC)cc1 | 92 to 94 °C
CC(C)(C)OC(=O)c1nc(-c2ccc(Cl)cc2Cl)n(-c2ccc(Cl)cc2)c1Br | 198 to 200 °C
N#Cc1ccc(N2CC(CO)OC2=O)cc1 (stereo not drawn) | 186 °C
CC(C)(CS(=O)(=O)c1ccc(Oc2ccc(Cl)cn2)cc1)C(=O)NO | 116 to 117 °C

SMILES | melting point
CN1Cc2c(/C=C\Cl)ncn2-c2cccc(Cl)c2C1=O | 205 to 207 °C
CC(=O)Nc1c(OC(C)=O)cc(C(=O)O)cc1[N+](=O)[O-] | 196 to 201 °C
O=C(Nc1c(C(O)(C(F)(F)F)C(F)(F)F)ccc2ccccc12)c1cccc([N+](=O)[O-])c1 | 211 to 212 °C
O=C1CCC(N2CCOc3cc(Br)ccc32)CC1 | 102 °C
CCc1cc(C(=O)c2ccccc2Cl)c(-n2c(CNC(=O)c3cc4ccccc4[nH]3)nnc2C23CC4CC(CC(C4)C2)C3)s1 | 283 to 286 °C
CCCOc1ccc2cc(OCc3ccccc3)c(C(=O)O)cc2c1 | 125 to 128 °C
N#Cc1ccc(OCCCN2CCC(C(O)(c3ccc(F)cc3)c3ccc(F)cc3)CC2)cc1 | 107 to 108 °C
COc1cccc2c1Sc1ccc(C(C)C(N)=O)cc1C(=O)C2 (stereo not drawn) | 210 to 211 °C
CCOC(=O)CC(=O)c1cc2cc(F)c(F)c(F)c2nc1Cl | 78 to 80 °C
COc1cc2c(cc1Nc1ncc(Cl)c(Nc3ccc(N(C)C)cc3OC)n1)CCN(CC(=O)N(C)C)CC2 | 69 to 83 °C
ONc1ccccc1F | 70 to 71 °C
CC(C)(C)c1cc(C(O)c2ccccc2)cc(C(C)(C)C)c1O (stereo not drawn) | 117 to 119 °C
COc1cccc(C2C(C(=O)O)CC(=O)N2c2ccccc2)c1 (stereo not drawn) | 145 to 149 °C
COc1ccc(-c2[nH]nc3c2C(=O)c2c(NC(=O)NNC(=O)c4ccc(O)cc4)cccc2-3)cc1 | 283 °C
CCOC(=O)c1cnn(-c2ccc(Cl)cc2C(F)(F)F)c1N | 114 to 116 °C
CCCn1c(-n2nc(-c3c(-c4ccccc4)nn4ccccc34)ccc2=O)cc(=O)n(CCC)c1=O | 155 °C
CN1C(=S)N(c2ccc(C#N)c(C(F)(F)F)c2)C(=S)C1(C)C | 211 to 212 °C
CCOC(=O)CCC1(C)Oc2ccc([N+](=O)[O-])cc2O1 (stereo not drawn) | 76 to 78 °C
CN1CCN(c2cccc3c2C[C@H](NC(=O)c2cccc(OS(C)(=O)=O)c2)CC3)CC1 | 159 to 160 °C
CCc1ccc(NCc2ccc(N(C)C)cc2)cc1 | 64 to 66 °C
COc1c(C2CCN(CCCCNC(=O)c3cc(-c4ccc(C#N)cc4)nn3CCO)CC2)ccc2c1CCCC2 | 152 °C
O=[PH](O)Cc1cccc(P(c2ccccc2)c2ccccc2)c1 | 173 °C
Clc1cccc(Nc2nc3nonc3nc2Nc2cccc(Cl)c2)c1 | 238 °C

Results, then the compound that gave them:

melting point | SMILES
126 to 128 °C | CCNc1nc(CC)c(-c2ccncc2)s1
228 to 229 °C | O=C(Nc1cc(Cl)cc(Cl)c1)c1cnc(Nc2ccccc2)nc1C(F)(F)F
179 to 181 °C | Oc1ccc(O)c(C2(c3ccccc3)CC3CCC2C3)c1 (stereo not drawn)
125 to 126 °C | CC(=O)OC(C)(C)c1nnc(-c2ccc3occ(-c4cc(F)ccc4F)c3c2)o1
75 to 81 °C | CC(=O)Oc1ccc(C(F)(F)C(F)(F)C(F)(F)I)cc1
96 to 98 °C | NC(=O)C[C@H](NC(=O)CCc1ccc(OCc2ccccc2)cc1OCc1ccccc1)C(=O)N1CCN(c2ccccc2)CC1
202 to 204 °C | CCCC(NS(=O)(=O)c1ccc(Cl)cc1)C(=O)Nc1ccc(CC(=O)O)cc1 (racemic)
107 to 108 °C | C=Cc1c(OC)nc(-c2ccc(Cl)c(OC)c2F)nc1C(=O)OC
166 to 167 °C | Cc1cc(Cl)ccc1OCC(=O)N1Cc2cccn2Cc2ccccc21
200 to 202 °C | CS(=O)(=O)Nc1cc([C@@H](O)CNC2CCN(c3ccc(S(=O)(=O)N4CC(=O)NC4=O)cc3)CC2)ccc1O
141 to 142 °C | CC1(C)OC(=O)C(Oc2ccc3ccccc3n2)=C1c1ccc(S(C)(=O)=O)cc1
157 °C | Cc1nc(NC(=O)Cc2ccsc2)c(Br)c(C)c1Br
99 to 100 °C | CCc1cc(NCc2ccc(-c3ccccc3C#N)cc2)n2ccnc2n1
153 to 155 °C | COCCOc1cc2c(Nc3cc(OC)c(Cl)cc3Cl)c(C#N)cnc2cc1OCC1CCN(C)CC1
166 °C | O=C1NC(O)c2cccn2-c2sccc21 (stereo not drawn)
145 to 146 °C | N#Cc1sc2ccc(Br)cc2c1-c1ccccc1
160 to 161 °C | CCC(COCc1ccc(C#N)cc1)n1cnc2c(N)nc3ccccc3c21 (stereo not drawn)
130 to 131 °C | COC(=O)c1ccccc1Nc1c(Cl)ccc(C)c1Cl
157 °C | CCCOc1cc([N+](=O)[O-])cc2cc(C(=O)OC)oc12
127 to 128 °C | CCOC(=O)c1c(C)cc(OCc2cccc(OCc3ccc4ccccc4n3)c2)cc1O
150 to 157 °C | CC#Cc1cn(C2OC(COC(C)=O)C(OC(C)=O)C2OC(C)=O)c(=O)[nH]c1=O (stereo not drawn)
252 °C | Cc1ccc([N+](=O)[O-])cc1Nc1ncc(-c2cccnc2)o1
139 to 142 °C | CNC(=O)N(C)c1nnc(SCc2ccccc2)s1
214 to 216 °C | CN1c2ccccc2C(C)(C)C12CNc1c(cc(N3CCCCC3)c3oc4ccccc4c13)O2 (stereo not drawn)
110 °C | CNC(=O)N(OC(=O)OC)c1ccc(Cl)c(Cl)c1
210 °C | Cc1cccc(N2CCN(c3ccc(=O)[nH]n3)CC2)c1

melting point | SMILES
103 to 106 °C | CCCCCCCCCCCCCCOc1cccc(CC(=O)Nc2ccccc2CBr)c1
60 to 61 °C | Cc1cc(Oc2ccccc2)ccc1C(=O)CBr
235 to 236 °C | O=c1[nH]c(-c2cc(C(F)(F)F)cc(C(F)(F)F)c2)nn1-c1cc(Cl)ccc1O
192 to 195 °C | CCCOCCOc1ccc(-c2ccc3c(c2)C=C(C(=O)Nc2ccc(CN(C)C4CCOCC4)cc2)CCS3(=O)=O)cc1C
130 to 137 °C | COc1cc2c(c3c1OC(C)(C)C3)C(c1ccc(NC(=O)c3cccnc3)cc1)=NC(C)(C)C2
179 to 184 °C | CC(=O)N1CCN(C(=O)c2cc3ccnc(Cl)c3[nH]2)CC1
131 to 133 °C | CCCCOCCOc1ccc(-c2ccc3c(c2)C=C(C(=O)Nc2ccc(SCc4nncn4CCC)c(C(F)(F)F)c2)CCN3CC(C)C)cc1
144 to 145 °C | Oc1c(-c2ccccc2)cc(C2c3ccccc3-c3ccccc32)cc1-c1ccccc1
161 to 162 °C | Cc1cc(NC(=O)NN(c2ccccc2)c2cccc(C#N)c2)ccc1N1CCCCC1=O
250 °C | CN(C(=O)Nc1ccc(Cl)cc1)c1nnc(Br)s1
149 to 150 °C | COP(=O)(O)CC(C)=CC(N)C(=O)O (stereo not drawn)
203 to 205 °C | CCN1CCN(c2cc3c(cc2F)c(=O)c(C(=O)O)cn3CC)CC1C (stereo not drawn)
107 to 109 °C | C=C(c1cc(F)ccc1OCCCC)n1ccnc1
58 to 60 °C | C=CCN1Cc2cc(Br)ccc2C1=O
133 °C | Cc1cc2cccc(OCCNCc3cccc(C4=CCCC4)c3)c2o1
60 to 61 °C | CCOC(=O)/C(=C\c1ccc([N+](=O)[O-])cc1)P(=O)(OCC)OCC
180 to 182 °C | NC1=NS(=O)N=C1NCCCN(Cc1ccccc1F)c1ccccn1 (stereo not drawn)
85 to 86 °C | COc1ccc2cc([C@H](C)C(=O)OCC(=O)OC(C)(C)C)ccc2c1
115 °C | COc1ccc(C2C(C(=O)O)C2(C)C)cc1 (stereo not drawn)
226 to 228 °C | CN1CC(CO)CC2c3cccc4c3C(CN4)CC21 (stereo not drawn)
90 to 99 °C | CCCCOc1c(NC(C)C(C)(C)C)c(=O)c1=O (stereo not drawn)
65 °C | CC(C)(O)C(C(=O)O)c1ccc(Cl)cc1 (stereo not drawn)
178 to 180 °C | CC12CCC3c4cc([N+](=O)[O-])c(O)cc4CCC3C1CCC2=O (stereo not drawn)
111 to 112 °C | COC(=O)c1ccc(NC(=O)CCc2cnoc2-c2ccccc2)cc1
152 to 154 °C | Cc1ccc(C(C)CC(=O)NC(C)c2ccc(NS(C)(=O)=O)c(F)c2)cc1C (stereo not drawn)
209 to 212 °C | O=C1CCC(c2ccc(Cl)cc2)c2ccccc2N1 (stereo not drawn)
